# Reference: patent publication US20030186946A1, “Suppression of cytotoxic protein conformers” (priority 2002, published 2003)
# Molecular target: T1, human amylin (Homo sapiens, UniProt P10997)
# T1 sequence (P10997 34-70 limits assumed): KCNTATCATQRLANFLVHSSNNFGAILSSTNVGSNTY
# Experiment: Circular dichroism assay of amylin conformation
# Format: biochemical
# Parameters: Amylin is a 37-residue; C-terminally amidated peptide having a disulfide bridge between the cysteines at residues 2 and 7; purchased Bachem Calif; (Torrance, Calif.); host or cells: chemical synthesis
# Details: for conformation of human amylin (circular dichroism): approximately 4 μM human amylin, 4% HFIP (FIG. 9E)
# Method: Preparation of monomeric human amylin. Human amylin (batch 0551805) was obtained from Bachem (Torrence, Calif.). Stock solutions of amylin were prepared as described by Padrick and Miranker, 2002. Human amylin was solubilised in 6M guanidine HCL/50 mM potassium phosphate, pH 6.0, and loaded onto a C18 reversed-phase spin column (Harvard Biosciences). The column was then washed sequentially with 10% Acetonitrile, 0.2% trifluoroacetic acid and water. Monomeric amylin was eluted in 100% HFIP (hexafluoroisopropanol). This stock solution of amylin was then used for all Circular Dichroism experiments.
# Circular Dichroism Assay. Circular dichroism spectra were measured on a Pi-Star 180 spectrometer (Applied Photophysics, Leatherhead, UK). Measurements were carried out in either 100% HFIP or 100 mM potassium chloride/50 mM potassium phosphate buffer (pH 7.4) and 2.5% HFIP at 25° C. A stock solution of monomeric human amylin was diluted into buffer to a final concentration of 2.5% HFIP and approximately 5 μM amylin to initiate amylin fibril formation. Spectra were collected at 1 nm intervals with a sample period of 25 μs and adaptive sampling of ±0.01 mdeg. Measurements were recorded immediately following addition of the human amylin stock solution to phosphate buffer in the presence or absence of Congo red or amaranth.
# Human amylin (100 μg) was purified on a C18 spin column to give a stock solution in 100% HFIP as described in the methods. A spectrum of this stock solution was collected at 1 nm intervals in a 0.1 cm path length quartz cell (FIG. 9B). The stock solution of monomeric amylin in 100% HFIP was diluted to 2.5% HFIP in 100 mM potassium chloride/50 mM potassium phosphate buffer (pH 7.4). Human amylin concentration was approximately 5 μM. A spectrum was collected at 1 nm intervals in a 0.5 cm path length quartz cell in the absence (FIG. 9C) or presence of 20-fold molar excess of Congo red over human amylin (FIG. 9D). The stock solution of monomeric amylin in 100% HFIP was diluted to 4% HFIP in 100 mM potassium chloride/50 mM potassium phosphate buffer (pH 7.4) containing decreasing concentrations of Congo red as indicated in the Figure. Human amylin concentration was approximately 4 μM. Spectra were collected at 1 nm intervals in a 0.1 cm path length quartz cell (FIG. 9E). The stock solution of monomeric amylin in 100% HFIP was diluted to 4% HFIP in 100 mM potassium chloride/50 mM potassium phosphate buffer (pH 7.4) containing 200 μM Amaranth. Human amylin concentration was approximately 4 μM. Spectra were collected at 1 nm intervals in a 0.1 cm path length quartz cell (FIG. 9F).
substance,measurement,setting,value
Congo red,conformation of human amylin (circular dichroism),0.8 μM Congo red after 1 hr,β-sheet
same,conformation of human amylin (circular dichroism),0.8 μM Congo red,random coil
same,conformation of human amylin (circular dichroism),4 μM Congo red,α-helix
same,conformation of human amylin (circular dichroism),200 μM Congo red,α-helix
same,effect on β-sheet conformer formation of human amylin (circular dichroism),"20-fold molar excess of Congo red, approximately 5 μM human amylin, 2.5% HFIP, pH 7.4 (FIG. 9D)",prevents formation of β-sheet conformers
same,time amylin remains stable in α-helical structure,excess of Congo red,at least 24 hr
